IC50 data for one compound are collected here from patent US20260015358A1, “BICYCLIC DERIVATIVES, COMPOSITIONS AND USES THEREOF” (Danatlas Pharmaceuticals Co., Ltd., priority 2023, published 2026).

Each structure is given as a SMILES string. Bounds are passed on as bounds.

Experiment [1] concerns the target T1, WRN [UniPro: Q14191 (WRN_HUMAN), N500-C946] (Homo sapiens (Human), UniProt Q14191). The experiment is described as follows: WRN ATPase assay (ADP-Glo). It counts as biochemical. The conditions noted are these: WRN enzymatic activity assay. In general terms: ADP-Glo turns the ADP formed in a reaction into a luminescent signal.
Experiment [2] deals with T1, WRN [UniPro: Q14191 (WRN_HUMAN), N500-C946]. The experiment is described as follows: WRN unwinding assay (FORKF DNA, fluorescence). The class given is biochemical. The conditions noted are these: Table 14.

T1 sequence (Q14191 500-946): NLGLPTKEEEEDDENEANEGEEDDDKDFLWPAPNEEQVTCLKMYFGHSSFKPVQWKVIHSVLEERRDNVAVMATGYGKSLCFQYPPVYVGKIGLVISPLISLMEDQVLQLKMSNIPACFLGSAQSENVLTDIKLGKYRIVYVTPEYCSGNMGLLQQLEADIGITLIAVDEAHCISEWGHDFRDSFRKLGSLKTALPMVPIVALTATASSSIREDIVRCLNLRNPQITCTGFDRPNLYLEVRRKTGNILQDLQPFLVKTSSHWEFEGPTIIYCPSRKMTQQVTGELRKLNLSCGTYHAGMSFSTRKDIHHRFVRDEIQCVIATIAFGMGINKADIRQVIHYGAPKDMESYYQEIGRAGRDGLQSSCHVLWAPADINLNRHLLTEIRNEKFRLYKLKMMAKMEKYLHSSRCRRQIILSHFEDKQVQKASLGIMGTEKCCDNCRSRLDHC

The term IC50 denotes the concentration that gives 50% inhibition. Low values mean greater potency in that assay, high ones weaker potency in that assay. Take `CCc1c(N2CCN(C(=O)CNC(=O)c3cccs3)CC2)c(=O)n2nc(C3=CCOCC3)nc2n1CC(=O)Nc1ccc(C(F)(F)F)cc1Cl` [Example 386, N-(2-(4-(4-(2-((2-Chloro-4-(trifluoromethyl)phenyl)amino)-2-oxoethyl)-2-(3,6-dihydro-2H-pyran-4-yl)-5-ethyl-7-oxo-4,7-dihydro-[1,2,4]triazolo[1,5-a]pyrimidin-6-yl)piperazin-1-yl)-2-oxoethyl)thiophene-2-carboxamide]: the half-inhibitory concentration (IC50) in experiment [1] and in experiment [2] was under 100 nM throughout.
